Experimental data reported in patent publication US12478690B2, “Methods and systems for controlled release of drug cargo via ATP-responsive liposomes” (UNIVERSITY OF TENNESSEE RESEARCH FOUNDATION, priority 2021, dated 2025).

Test: Diffusion ordered spectroscopy (DOSY) of the lipid switch before and after ATP
Assay type: physicochemical
Conditions: DMSO containing 8% D2O; substance alone
Description: Diffusion ordered spectroscopy (DOSY) was performed on 1a lipid switch molecules in de-DMSO containing 8% D2O before and after adding ATP. A decrease in diffusion coefficient was observed. In at least one experiment, the diffusion coefficient decreased from (1.0793±0.043)×10^−6 cm^2/s for 1a lipid switch molecule and (1.142±0.018)×10^−6 cm^2/s for ATP to (0.987±0.098)×10^−6 cm^2/s for 1a+ATP. The diffusion coefficient indicates an increase in the hydrodynamic radius per lipid molecule upon binding.

Nc1ncnc2c1ncn2[C@@H]1O[C@H](COP(=O)(O)OP(=O)(O)OP(=O)(O)O)[C@@H](O)[C@H]1O [ATP, adenosine triphosphate]
Diffusion coefficient: 1.142±0.018 ×10^−6 cm^2/s
